According to patent publication US12215215B2, “Stabilizer compositions and methods for using same for protecting polymeric organic materials from UV light and thermal degradation” (Cytec Industries Inc., priority 2014, dated 2025):

Assay: Solubility of triazine UV absorbers in cyclohexane at room temperature
Type: physicochemical
Details: room temperature (20° C.)
From the text: UV stabilizers and co-additives. […] Solubility measurements of various orthohydroxyphenyl triazines in cyclohexane (substitute for polypropylene) conducted at room temperature indicate that such triazines having a solubility greater than 0.04 wt. % can be used in certain embodiments as the UV absorber of the stabilizer compositions described herein.

| Solubility of triazines in Cyclohexane at room temperature | Compound |
| --- | --- |
| >0.04% weight % | CCCCCCCCOc1ccc(-c2nc(-c3ccc(OCCCCCCCC)cc3O)nc(-c3ccc(OCCCCCCCC)cc3O)n2)c(O)c1 [Formulation P-800, 2,4,6-tris(2-hydroxy-4-octyloxy-phenyl)-1,3,5-triazine] |
| 1.4 ± 0.2 weight % | CCCCCCCCOc1ccc(-c2nc(-c3ccc(C)cc3C)nc(-c3ccc(C)cc3C)n2)c(O)c1 [UV-1164, 2-[4,6-bis(2,4-dimethylphenyl)-1,3,5-triazin-2-yl]-5-(octyloxy) phenol] |
